The experiment deals with Neurotensin receptor type 1 (Homo sapiens) (UniProt P30989). The experiment can be described thus: NTR1 agonists, beta-arrestin spot formation, SAR follow-up, imaging, image-based, set 4 (AID 602426). The conditions noted are these: NTR1-U2OS beta-arrestin-GFP spot imaging.

The values below come from PubChem BioAssay AID602426 (Sanford-Burnham Center for Chemical Genomics, 2012).

As a reminder, the EC50 is the concentration needed to bring the measured effect to its halfway point.

Neurotensin receptor type 1 (Homo sapiens), sequence (P30989 whole entry, looked up): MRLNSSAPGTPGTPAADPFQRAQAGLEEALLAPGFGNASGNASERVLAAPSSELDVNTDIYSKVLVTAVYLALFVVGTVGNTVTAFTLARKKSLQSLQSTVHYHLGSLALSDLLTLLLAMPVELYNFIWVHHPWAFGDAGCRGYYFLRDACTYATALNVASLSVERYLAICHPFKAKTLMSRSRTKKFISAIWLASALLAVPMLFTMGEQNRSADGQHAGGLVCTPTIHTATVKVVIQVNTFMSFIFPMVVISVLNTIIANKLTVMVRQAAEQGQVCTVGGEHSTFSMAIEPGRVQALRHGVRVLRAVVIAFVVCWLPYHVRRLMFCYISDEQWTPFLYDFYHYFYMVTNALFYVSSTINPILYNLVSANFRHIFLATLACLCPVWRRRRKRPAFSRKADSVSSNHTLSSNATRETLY

In the case of `COc1cccc(OC)c1-c1cc(C(=O)N[C@@H](CC(C)C)C(=O)O)nn1-c1ccnc2cc(Cl)ccc12`, the EC50 was 925 nM.
